Assay results as given in US20170183306A1, “CYCLIC COMPOUNDS HAVING A 1,3 DIAMINO-FUNCTIONALITY FOR USE IN THE TREATMENT OF HIV INFECTION” (Universite Paris Descartes, priority 2014, published 2017).
Where a name gives a salt, the structure may show the parent alone. Read-outs that look alike come from different tables or passages of the source.

Experiments:
Type in all cases: cell-based
[1] = tested on: wild type NL4-3 virus (HIV-1) in HeLa-p4 cells; experiment: HeLa-p4 single-cycle HIV-1 infectivity, beta-galactosidase CPRG test; conditions: for activity at 50 µM: read-out: Hela-p4 CPRG 50 μM; for activity at 100 µM: read-out: Hela-p4 CPRG 100 μM
Method: (§1) HeLa-p4 cells are HeLa CD4 LTR-LacZ wherein LacZ expression is induced by the trans-activating protein Tat of HIV, making possible the precise quantification of HIV-1 infectivity from a single replication cycle. HeLa-CD4 cells growing exponentially at a density of 1×10^4/mL were placed in 96-well plates and infected the following day with 1 ng of HIV p24 antigen in the presence of different concentrations of compounds. The titles for a single cycle of the viruses were determined 48 hours after infection by quantifying the beta-galactosidase activity in lysates P4 by colorimetric test (CPRG, Promega) based on the cleavage of chlorophenol red-beta-D-galactopyranoside (CPRG) by beta-galactosidase. A cell viability assay measuring the absorbance at […] using the yellow tetrazolium reagent MTS [[…]] (Promega) was carried out.
(§2) For the helap4 cells experiments, the efficacy of the compounds is determined in comparison with control cells containing wild type NL4-3 virus alone (i.e. without any added compound) and is expressed as percentage of control. Then, the viral replication was increased for several compounds at the 50 and 100 μM concentrations with an absence of cytotoxic effects at the same concentrations (MTS test) (table 1).

J-Lat cells = experiment: J-Lat cells, percentage of GFP-positive cells by cytometry; conditions: 24 h, compound alone
Method: The J-Lat were grown in RPMI 1640 medium (Gibco-BRL) supplemented with 10% fetal bovine serum, 50 U/ml of penicillin, […] of streptomycin at 37 uC in a humidified 95% air/5% CO2 atmosphere. The cells were plated at 5.105 cells in a 96 well-plate. TNF ? was purchased from Immunosource. SAHA (suberoylanilide hydroxamic acid), prostratin (12-deoxyphorbol-13-acetate) and vorinostat were obtained from Sigma-Aldrich. The J-Lat cells were treated for 24 h with the different compounds alone. The cells were washed twice in PBS, re-suspended in PBS containing 4% paraformaldehyde and fixed for 30 min. Cells were next washed and re-suspended in PBS. The percentage of GFP-positive cells was measured with a LSRFortessa cytometer (Becton-Dickinson) using FACSDiva Version 6.1.3 according to the manufacturer's instructions.
The results for the J-Lat cells experiments are expressed as a percentage of the living fluorescent cells. In this model, some slight increase of viral production measured by fluorescence are quantified (table 1).

HeLa-p4 cells = experiment: Cell viability assay (MTS) on HeLa-p4 cells
Method: as §1, §2

[2] = 50 μM, 48 hours after infection, control = NL4-3 virus alone
[3] = 100 μM, 48 hours after infection, control = NL4-3 virus alone
[4] = Human immunodeficiency virus 1, NL43, HeLaP4, 50 μM, 48 hours after infection, control = NL4-3 virus alone
[5] = Human immunodeficiency virus 1, NL43, HeLaP4, 100 μM, 48 hours after infection, control = NL4-3 virus alone
[6] = Human immunodeficiency virus 1, NL43, HeLaP4, 48 hours after infection, control = NL4-3 virus alone
[7] = Human immunodeficiency virus 1, NL43, HeLaP4, 48 h

Row | Molecule | Hela-p4 CPRG 50 μM [1, 2] | Hela-p4 CPRG 100 μM [1, 3] | J-lat 50 μM (J-Lat cells) | J-lat 100 μM (J-Lat cells) | Hela-p4 MTS 50 μM (HeLa-p4 cells) | Hela-p4 MTS 100 μM (HeLa-p4 cells) | activity at 50 µM [1, 4] [%] | activity at 100 µM [1, 5] [%] | activity at 200 µM [1, 6] [%] | Hela-p4 MTS 50 μM (HeLa-p4 cells; 50 μM, cell viability) | Hela-p4 MTS 100 μM (HeLa-p4 cells; 100 μM, cell viability) | Hela-p4 MTS 200 μM (HeLa-p4 cells; cell viability) | activity at 50 µM [1, 7] [%] | activity at 100 µM [1, 7] [%]
1 | 1-(3,5-diaminopiperidin-1-yl)-2-(3-methoxyphenyl)ethanone [ECO02-030-C] | 139 percentage of control | 166 percentage of control | 0.5 percentage of the living fluorescent cells | 0.1 percentage of the living fluorescent cells | 109 | 107 |  |  |  |  |  |  |  | 
2 | CC(C)(C)OC(=O)N[C@@H]1C[C@H](NC(=O)OC(C)(C)C)CN(S(=O)(=O)c2ccccc2)C1 [ECO02-081-C, di-tert-butyl (1-(phenylsulfonyl)piperidine-3,5-diyl)dicarbamate] |  |  | 0.8 percentage of the living fluorescent cells |  |  |  | 196 | 207 | 279 | 91 | 69 | 77 |  | 
3 | COc1ccccc1CCN1C[C@H](N)C[C@H](N)C1 [ECO01-031-C, 1-(2-methoxyphenethyl)piperidine-3,5-diamine] |  |  | 0.1 percentage of the living fluorescent cells | 4.8 percentage of the living fluorescent cells |  |  | 88 | 108 |  | 88 | 82 |  |  | 
4 | N[C@@H]1C[C@H](N)CN(CCc2ccc3c(c2)OCO3)C1 [ECO01-033-C, 1-(2-(benzo[d][1,3]dioxol-5-yl)ethyl)piperidine-3,5-diamine] |  |  | 0.1 percentage of the living fluorescent cells | 0.2 percentage of the living fluorescent cells |  |  | 103 | 146 |  | 97 | 94 |  |  | 
5 | N[C@@H]1C[C@H](N)CN(CCc2ccccc2)C1 [ECO02-027-C, 1-phenethylpiperidine-3,5-diamine] |  |  | 8.7 percentage of the living fluorescent cells | 2.3 percentage of the living fluorescent cells |  |  | 75 | 52 |  | 100 | 45 |  |  | 
6 | COc1cccc(CCN2C[C@@H](N)C[C@@H](NS(C)(=O)=O)C2)c1 (racemic) [ECO02-073-C, rac-cis-N-(5-amino-1-(3-methoxyphenethyl)piperidin-3-yl) methanesulfonamide] |  |  | 0.8 percentage of the living fluorescent cells |  |  |  | 151 | 205 | 417 | 100 | 99 | 79 |  | 
7 | COc1cc(CN2C[C@H](N)C[C@H](N)C2)cc(OC)c1 [ECO02-064-C, 1-(3,5-dimethoxybenzyl)piperidine-3,5-diamine] |  |  | 2.4 percentage of the living fluorescent cells |  |  |  | 109 | 133 |  | 115 | 107 |  |  | 
8 | CN(C)c1ccc(CN2C[C@H](N)C[C@H](N)C2)cc1 [ECO02-069-B, 1-(4-(dimethylamino)benzyl)piperidine-3,5-diamine] |  |  | 1.3 percentage of the living fluorescent cells |  |  |  |  |  |  | 99 | 94 |  | 86 | 88
9 | CC(O)c1ccc(C(=O)NC(CCCCN)C(=O)N2C[C@H](N)C[C@H](N)C2)cc1 (stereo partly shown) [AB289-1, N-(6-amino-1-(3,5-diaminopiperidin-1-yl)-1-oxohexan-2-yl)-4-(1-hydroxyethyl)benzamide] |  |  | 0 percentage of the living fluorescent cells | 0.8 percentage of the living fluorescent cells |  |  | 157 | 236 | 294 | 103 | 100 | 74 |  | 
10 | N[C@@H]1C[C@H](N)CN(Cc2cccc3cnccc23)C1 [ECO02-068-C, 1-(isoquinolin-5-ylmethyl)piperidine-3,5-diamine trihydrochloride] |  |  | 0.4 percentage of the living fluorescent cells |  |  |  | 105 | 137 |  | 85 | 83 |  |  | 
11 | COc1ccc(-c2ccc(N3C[C@H](N)C[C@H](N)C3)cc2)cc1 [ECO02-029-C, 1-(4′-methoxy-[1,1′-biphenyl]-4-yl)piperidine-3,5-diamine4-(2-((3S,5R)-3,5-diaminopiperidin-1-yl)ethyl)phenol] |  |  | 2.4 percentage of the living fluorescent cells |  |  |  | 29 | 30 |  | 25 | 25 |  |  | 
12 | CC(C)(C)OC(=O)N[C@@H]1C[C@H](NC(=O)OC(C)(C)C)CN(Cc2ccccc2)C1 [ECO02-056-C, di-tert-butyl (1-benzylpiperidine-3,5-diyl)dicarbamate] |  |  | 1.6 percentage of the living fluorescent cells |  |  |  | 100 | 79 |  | 67 | 38 |  |  | 
13 | 1-(3,5-diaminopiperidin-1-yl)-2-(3-methoxyphenyl)ethanone [ECO02-031-C] | 146 percentage of control | 222 percentage of control | 0.2 percentage of the living fluorescent cells | 0.1 percentage of the living fluorescent cells | 116 | 110 |  |  |  |  |  |  |  | 
14 | Cc1ccc(CCN2C[C@H](N)C[C@H](N)C2)cc1 [ECO01-029-C, 1-(4-methylphenethyl)piperidine-3,5-diamine] |  |  | 0.1 percentage of the living fluorescent cells | 15.8 percentage of the living fluorescent cells |  |  | 126 | 109 |  | 94 | 89 |  |  | 
15 | CC(C)N1C[C@H](N)C[C@H](N)C1 [AB542, 1-isopropylpiperidine-3,5-diamine] |  |  | 0.1 percentage of the living fluorescent cells | 0.7 percentage of the living fluorescent cells |  |  | 113 | 106 |  | 100 | 99 |  |  | 
16 | Cc1cccc(CCN2C[C@H](N)C[C@H](N)C2)c1 [ECO01-030-C, 1-(3-methylphenethyl)piperidine-3,5-diamine] |  |  | 0.1 percentage of the living fluorescent cells | 0 percentage of the living fluorescent cells |  |  | 125 | 103 |  | 84 | 82 |  |  | 
17 | COc1ccc(CN2C[C@H](N)C[C@H](N)C2)cc1OC [PDA25, 1-(3,4-dimethoxybenzyl)piperidine-3,5-diamine] |  |  | 0 percentage of the living fluorescent cells | 0.2 percentage of the living fluorescent cells |  |  | 183 | 184 | 227 | 97 | 93 | 58 |  | 
18 | CCOc1ccc(CCN2C[C@H](N)C[C@H](N)C2)cc1 [ECO02-005-C, 1-(4-ethoxyphenethyl)piperidine-3,5-diamine] |  |  | 0.5 percentage of the living fluorescent cells | 0.1 percentage of the living fluorescent cells |  |  | 127 | 195 |  | 106 | 97 |  |  | 
19 | CS(=O)(=O)c1ccc(CCN2C[C@H](N)C[C@H](N)C2)cc1 [ECO01-039-C, 1-(4-(methylsulfonyl)phenethyl)piperidine-3,5-diamine] |  |  | 0.1 percentage of the living fluorescent cells | 0.1 percentage of the living fluorescent cells |  |  | 164 | 168 |  | 95 | 108 |  |  | 
